Data published in patent US20100196311A1, “METHODS AND COMPOSITIONS CONTAINING mTOR INHIBITORS FOR ENHANCING IMMUNE RESPONSES” (priority 2009, published 2010).

B1: IL-12: interleukin-12, cytokine (signal 3) (protein, UniProt P43431 23-215; P43432 23-335, looked up)
Interleukin-12 subunit alpha: RVIPVSGPARCLSQSRNLLKTTDDMVKTAREKLKHYSCTAEDIDHEDITRDQTSTLKTCLPLELHKNESCLATRETSSTTRGSCLPPQKTSLMMTLCLGSIYEDLKMYQTEFQAINAALQNHNHQQIILDKGMLVAIDELMQSLNHNGETLRQKPPVGEADPYRVKMKLCILLHAFSTRVVTINRVMGYLSSA
Interleukin-12 subunit beta: MWELEKDVYVVEVDWTPDAPGETVNLTCDTPEEDDITWTSDQRHGVIGSGKTLTITVKEFLDAGQYTCHKGGETLSHSHLLLHKKENGIWSTEILKNFKNKTFLKCEAPNYSGRFTCSWLVQRNMDLKFNIKSSSSSPDSRAVTCGMASLSAEKVTLDQRDYEKYSVSCQEDVTCPTAEETLPIELALEARQQNKYENYSTSFFIRDIIKPDPPKNLQMKPLKNSQVEVSWEYPDSWSTPHSYFSLKFFVRIQRKKEKMKETEEGCNQKGAFLVEKTSTEVQCKGGNVCVQAQDRYYNSSCSKWACVPCRVRS

Legend:
OT-I cells = assay: Type I effector functions (IFN-γ, CTL activity, Granzyme B) of OT-I cells, primary and secondary phase; format: cell-based, mouse
Experimental: FIG. 3. Sustained mTOR Activity Is Essential for Heritable Type I Effector Differentiation of CD8^+ T Cells. […] (D and E) OT-I cells were stimulated with Ag+B7.1 (±) IL-12 and rapamycin was added 12 hr after stimulation to evaluate cells for (D) S6K phosphorylation at 48 hr and (E) IFN-γ production at the primary and secondary phase. Experiments shown are representative of at least three (A and B) and two (C-E) independent experiments with similar outcomes. (Data are presented as mean±SEM.)
Stimulation of OT-1 Cells. Naive OT-I cells were stimulated with latex microspheres expressing H-2K^b/ovalbumin antigen and B7.1 according to known techniques. Naive OT-II cells were stimulated with anti-CD3-/anti-CD28-coated latex beads. In some experiments, the cell line derived from embryonic fibroblasts, namely, BOK (MEC.B7.SigOVA: expressing H-2K^b, OVAp and B7.1, were used as antigen-presenting cells to stimulate naive OT-I cells according to known techniques.
Evaluation of Secondary Antigen-Recall Responses In Vitro. For studying secondary antigen-recall response in vitro; OT-I cells harvested at 72 hr (primary) were washed thrice with medium and recultured (1×10^5/ml) for an additional 72 hr in a 24-well plate with IL-7 (10 ng/ml) only. At 144 hr the cells were harvested, washed thrice with medium, had numbers adjusted (5×10^5), and were restimulated with Ag/B7.1 only for an additional 24 hr (secondary stimulation). At 168 hr, the cells recovered were evaluated by flow cytometry and in vitro functional assay.
Because the presence of IL-12 during antigen stimulation augments mTOR activity and is deterministic for type I effector maturation, we analyzed whether sustained mTOR kinase activity is required for IL-12-programmed type I effector functions in OT-I cells. To do so, we stimulated naive OT-I cells with BOK±IL-12, and rapamycin and effector functions were analyzed from the primary and secondary activated OT-I pool. […] In addition, we observed a block in IL-12-induced IFN-γ production and CTL activity upon rapamycin treatment at 144 hr after primary stimulation.

T-bet = T-bet mRNA and protein expression in OT-I cells; format: cell-based, mouse
Experimental: FIG. 4. IL-12-Enhanced mTOR Phosphorylation Is Essential for T-bet-Determined Type I Effector Maturation of CD8^+ T Cells. (A-C) OT-I cells stimulated with Ag+B7.1 (±) IL-12 and rapamycin were evaluated for (A) mRNA for T-bet at the indicated time points by RT-PCR, (B) T-bet protein expression at the indicated time-points by ICS, and (C) T-bet protein expression by ICS before and after antigen recall. **p<0.0035; ***p<0.0005. (D) WT and Tbx21^−1− OT-I cells were stimulated with Ag+B7.1 (±) IL-12 and evaluated for IFN-γ production at the primary and secondary phase. ***p<0.0001. (E and F) OT-I cells stimulated with Ag+B7.1 (±) IL-12 and rapamycin were transduced with T-bet-ER retroviral vector (±) 4-HT (10 nM) and evaluated by ICS for (E) T-bet protein expression by ICS and (F) IFN-γ at secondary phase (168 hr). (G and H) OT-I cells stimulated with Ag+B7.1 (±) insulin (1 U/ml) and rapamycin were evaluated by ICS for (G) S6K phosphorylation at 48 hr and (H) T-bet expression at 72 hr. Experiments shown are representative of at least three (A, B, D, E, and F) and two (C, G, and H) independent experiments with similar outcomes. (Data are presented as mean±SEM).
Retroviral Transduction and T-Bet Induction. T-bet-ER RV (Estrogen Responsive Retro Viral Vector) was cotransfected into Platinum-E cells together with the retroviral packaging vector pCL-Eco using LipoD293 DNA in vitro transfection reagent (SignaGen Laboratories) following the manufacturer's instructions. The medium was replaced the following day, and retroviral supernatant was collected 3 days after transfection. For transduction, naive OT-I cells stimulated for 24 hr, were suspended in retroviral supernatant containing polybrene (8 μg/ml; Sigma-Aldrich), and were spin-transduced at 2200 rpm for 90 min at 30° C. After spin-transduction, cells were cultured in fresh medium containing the same polarizing milieu as before, along with the addition of 4-HT (10 nM). At the end of 72 hr after initial stimulation, cells were washed thrice and maintained in the absence of any stimulation but in the presence of 4-HT and IL-7 (10 ng/ml).
Because the sustained expression of T-bet is necessary and sufficient for imprinting type I effector cell fate (Matsuda et al., 2007) and mTOR inhibition reversed IL-12 imprinted type I effector maturation in OT-I cells (FIG. 3), we next sought to determine whether rapamycin treatment affects T-bet expression in OT-I cells by performing kinetic analysis of T-bet mRNA expression (FIG. 4A). […] Moreover, inhibition of mTOR activity at 12 hr was also able to achieve loss in T-bet expression, similar to the observed loss in type I effector maturation (FIG. 3E).

[1] = IFN-α, Ag+B7.1-stimulated OT-I cells

Molecule	IFN-γ production (OT-I cells; [1])	T-bet expression (T-bet; [1])	IFN-γ production and CTL activity (OT-I cells; IL-12 added to BOK-stimulated OT-I cells, 72 hr)	Ag+B7.1-induced T-bet expression (T-bet; IL-12 addition, 24-96 hr)
IFN-α	increases	unable to enhance	–	–
B1	–	–	robust	enhanced and sustained
